Data on six compounds can be found in patent US20230277564A1, “CANNABINOIDAL COMPOSITIONS FOR THE TREATMENT OF DISEASE” (The State of Israel, Ministry of Agriculture & Rural …, priority 2020, published 2023).

The structures appear in SMILES notation.

What all share (type): cell-based
Test [1] relates to IL-6 secreted from A549 cells. Briefly: IL-6 secretion from TNFα-treated A549 cells (ELISA). The note with it: for IL-6 secretion: at the concentration and ratio found in 10 μg/ml FCBD:std. The protocol: (§1) Cell cultures—The lung cancer cell line A549 (ATCC® CCL-185™) was cultured in DMEM (01-055-1A, Biological Industries, Israel) growth media supplemented with 10% FBS (04-127-1A, Biological Industries, Israel), 1% […], 1% pen-strep and plasmocin. Macrophage cell line KG1 (ATCC® CCL-246™) was cultured in IMDM (01-058-1A; Biological Industries, Israel) containing 20% FBS and 1% pen-strep and plasmocin. IMDM media supplemented with 10 ng/mL PMA, 5% FBS, 1% pen-strep and plasmocin was used as stimulating environment for the differentiation of KG1 cells. Differentiated cells with typical morphology were attached to the plate surface within 1-2 days of initiation^39.
(§2) Determination of IL levels and cell viability—IL-6 and IL-8 levels were determined as described previously^40 with the following modifications: A549 cells were plated at 5×10^4 cells per well in DMEM complete media (400 μL) in a 24-well cell culture plate. Cells were allowed to attach and incubated with complete DMEM at 37° C. in a humidified atmosphere containing 5% CO2-95% air. Following overnight incubation, cells were treated with 300 ng/mL TNFα with or without plant extract or fraction/compounds. IL-6 and IL-8 secretion levels were analyzed after 4 hours of incubation. Supernatant samples were taken and tested using IL-6 and IL-8 ELISA kits (DY206 and DY208 respectively, R&D Systems, Minneapolis, Minn., USA). Dexamethasone was used as a positive control. For cell viability, an Alamar Blue (resazurin) assay was performed on each well as described previously^40. For dose response assays, data points were connected by non-linear regression lines of the sigmoidal dose-response relation. GraphPad Prism (GraphPad Software Inc., San Diego, USA) was employed to produce dose-response curves and IC50 doses were calculated using nonlinear regression analysis.

The subject of test [2] is IL-8 secreted from A549 cells. The test is described as follows: IL-8 secretion from TNFα-treated A549 cells (ELISA). The note with it: for IL-8 secretion: at the concentration and ratio found in 10 μg/ml FCBD:std. On the procedure: as §1, §2
Background: In an ELISA, binding on a coated surface is turned into a signal by an enzyme label.

The subject of the next test is CD36. Briefly: qPCR of CD36 mRNA in PMA-treated KG1 cells. The note with it: FCBD and FCBD:std 7 μg/mL, Palmitic acid 150 μM, versus vehicle control. The protocol:
as §1
(§3) Quantitative real-time (qRT) PCR—qRT PCR was effected as described^38. Briefly, cells were seeded in a 6-well plate at a concentration of 1.5×10^6 cells in 3 mL per well. Following 24 hours incubation, cells were treated with extract/fraction/compounds for 6 hours. Cells were harvested and RNA was extracted using TRI reagent (T9424, Sigma Aldrich, USA). RNA was reverse-transcribed in a total volume of 20 μL (PB30.11-10; qPCRBIO), according to manufacturer's protocol. PCR was performed in triplicate using qPCR SyGreen Blue Mix (PB20.16-20, qPCRBIO) and a StepOnePlus system (Applied Biosystems). […]
Background: In qPCR the cycle at which signal appears reflects the starting amount.

The subject of another test is IL-8. The test is described as follows: qPCR of IL-8 mRNA in PMA-treated KG1 cells (differentiated macrophages). The note with it: 6 hours, FCBD and FCBD:std 7 μg/mL, Dex 8 μg/mL, relative to control. The protocol: as §1, §3
Test [3] has as its system IL-8 secreted from KG1 cells. The test is described as follows: IL-8 secretion from KG1 cells treated with TNFα (ELISA). The note with it: 300 ng/mL TNFα, 4 hours, FCBD or FCBD:std 10 μg/mL or indicated concentrations, Dex 4 μg/mL. The protocol: as §1
Determination of IL levels and cell viability—IL-6 and IL-8 levels were determined as described previously^40 with the following modifications: A549 cells were plated at 5×10^4 cells per well in DMEM complete media (400 μL) in a 24-well cell culture plate. Cells were allowed to attach and incubated with complete DMEM at 37° C. in a humidified atmosphere containing 5% CO2-95% air. […] IL-6 and IL-8 secretion levels were analyzed after 4 hours of incubation. […] GraphPad Prism (GraphPad Software Inc., San Diego, USA) was employed to produce dose-response curves and IC50 doses were calculated using nonlinear regression analysis.

The subject of the next test is CCL2. Briefly: qPCR of CCL2 mRNA in PMA-treated KG1 cells (differentiated macrophages). The note with it: 6 hours, FCBD and FCBD:std 7 μg/mL, Dex 8 μg/mL, relative to control. The protocol:
as §1, §3

In another test the test system is IL-6. The test is described as follows: qPCR of IL-6 mRNA in PMA-treated KG1 cells (differentiated macrophages). The note with it: 6 hours, FCBD and FCBD:std 7 μg/mL, Dex 8 μg/mL, relative to control. On the procedure: as §1, §3
Where [4] appears, read: higher or lower concentrations of CBD than 3.0 μg/mL.

For the compound `Cc1c(C(=O)NN2CCCCC2)nn(-c2ccc(Cl)cc2Cl)c1-c1ccc(I)cc1` [CB1 IA], the “IL-6 levels, inverse agonist alone” value in test [1] (treatment with IA only) is “reduction”. The “IL-8 levels, inverse agonist alone” value in test [2] (treatment with IA only) is recorded as “reduction”.

For the compound `C=C(C)[C@@H]1CCC(C)=C[C@H]1c1c(O)cc(CCCCC)cc1O` [CBD, cannabidiol], the “IL-6 levels, anti-inflammatory activity” value in test [1] (CBD alone at 3.0 μg/mL) is “showed anti-inflammatory activity”. The IL-6 secretion result in test [1] was “did not lead to such a reduction”. In addition, in test [1] (setting [4]), the “activity in reducing IL-6 levels” value is reported as “lower and/or non-significant activity”. Further, the “IL-8 levels, anti-inflammatory activity” value in test [2] (CBD alone at 3.0 μg/mL) is reported as “showed anti-inflammatory activity”. In addition, the IL-8 secretion entry in test [2] was “did not lead to such a reduction”. Further, the “activity in reducing IL-8 levels” value in test [2] (setting [4]) is “lower and/or non-significant activity”.

`CCCCCc1cc(O)c(C/C=C(\C)CCC=C(C)C)c(O)c1` [CBG, cannabigerol]: the IL-6 secretion entry in test [1] is “did not lead to such a reduction”. In test [2], the IL-8 secretion entry is given as “did not lead to such a reduction”.

Turning to `CCCCCCCCCCCCCCCC(=O)O` [PA, Palmitic acid], the “mRNA expression of CD36” value with CD36 is given as “reduced”.

Take `CCCc1cc(O)c2c(c1)OC(C)(C)[C@@H]1CCC(C)=C[C@@H]21` [THCV, tetrahydrocannabivarin]: the IL-6 secretion result in test [1] was “did not lead to such a reduction”. Further, the IL-8 secretion result in test [2] is recorded as “did not lead to such a reduction”.

For the compound `C[C@@H]1C[C@H]2[C@@H]3CCC4=CC(=O)C=C[C@]4(C)[C@@]3(F)[C@@H](O)C[C@]2(C)[C@@]1(O)C(=O)CO` [dexamethasone, Dexamethasone], the “increase of IL-8 mRNA expression level” value in the test on IL-8 was “no effect”. For the same compound, the “IL-8 secretion from KG1 cells” value in test [3] was “no effect”. Further, the “increase of CCL2 mRNA expression level” value in the test with CCL2 is given as “no effect”. Also, the “increase of IL-6 mRNA expression level” value with IL-6 is reported as “no effect”.
